Laboratory results from patent US8188221B2, “Peptide homing to brain tumors” (Burnham Institute for Medical Research, priority 2008, dated 2012).
Ends that are not written are not given here.

Legend:
Format in all cases: in vivo, mice
[1] = system: human U87MG intracranial xenograft; experiment: Homing and localization of fluorescein-conjugated peptide in intracranial U87MG tumors (histology, PECAM-1 co-staining)
Description: (§1) Fluorescein-conjugated CGLSGLGVA peptide (10 μg) was injected into tail vein of murine HIFko or human U87MG intracranial xenograft bearing mice. After 60 min of circulation tumor-containing brain was excised and prepared for histological analysis. Peptide was visualized by using an antibody against fluorescein (rabbit anti-FITC, Zymed Laboratories). […] Nuclei were visualized by DAPI staining (blue).
Fluorescein-conjugated CGLSGLGVA peptide (10 μg) was injected into the tail vein of intracranial human U87MG tumor-bearing mice. After 60 min of circulation tumor-containing brain was excised and prepared for histological analysis. Peptide was visualized by using an antibody against fluorescein (rabbit anti-FITC, Zymed Laboratories). […] Magnification in FIG. 6A, 200×; FIG. 6B, 400×.

[2] = system: VEGF overexpressing (VEGF+) tumor; experiment: Homing of fluorescein-conjugated peptide to intracranial VEGF-overexpressing tumors (histology); settings: 10 μg into tail vein, 60 min circulation, FIG. 3A
Description: Fluorescein-conjugated CGLSGLGVA peptide (10 μg) was injected into the tail vein of VEGF overexpressing (VEGF+) tumor-bearing mice. After 60 min of circulation tumor was excised and prepared for histological analysis. Peptide was visualized by using an antibody against fluorescein (rabbit anti-FITC, Zymed Laboratories). FIG. 3A. […] 3B: Same microscopic field as in 3A. Nuclei were visualized by DAPI staining (blue).

[3] = system: intracranial HIFko islet tumors; experiment: Homing of fluorescein-conjugated peptide to intracranial HIFko islet tumors (histology, anti-FITC); settings: 10 μg into tail vein, 60 min circulation
Description: Fluorescein-conjugated CGLSGLGVA peptide (10 μg) was injected into tail vein of HIFko tumor-bearing mice. After 60 min of circulation tumor-containing brain was excised and prepared for histological analysis. Peptide was visualized by using an antibody against fluorescein (rabbit anti-FITC, Zymed Laboratories). […] Presence of the tumor cells was confirmed by staining for the SV40 T-antigen specific for tumor cells from a subsequent section (green in FIG. 2B). FIGS. 2C and 2D show the same microscopic field as 2A and 2B. Nuclei were visualized by DAPI staining (blue).
as §1

subcutaneous HIFko tumor = experiment: Homing of fluorescein-conjugated peptide to subcutaneous HIFko tumors (histology); settings: 10 μg into tail vein, 60 min circulation, FIG. 4A
Description: Fluorescein-conjugated CGLSGLGVA peptide (10 μg) was injected into the tail vein of subcutaneous HIFko tumor-bearing mice. After 60 min of circulation tumor was excised and prepared for histological analysis. Peptide was visualized by using an antibody against FITC (rabbit anti-FITC, Zymed Laboratories). FIG. 4A. […] FIG. 4B. Same microscopic field as in FIG. 4A. Nuclei were visualized by DAPI staining (blue).

[4] = system: intracranial HIF-1alfa KO (HIFko) tumor; experiment: Homing of phage displaying CGLSGLGVA to intracranial islet tumors (phage titration of organs); settings: peptide displayed on phage, 10^9 pfu into tail vein, 15 min circulation, perfusion, FIG. 1
Description: CGLSGLGVA or a control phage (10^9 pfu=plaque forming unit) were injected into the tail vein of intracranial HIF-1alfa KO (HIFko) tumor-bearing mice. After 15 min of circulation the mice were perfused through the heart with saline to remove unbound phage followed by excision of tumor containing brain, normal brain, liver, kidney and lungs. The number of phage homed to those organs were determined by titration.

| Substance | homing to tumor ([1]; U87MG human glioblastoma xenografts, intravenous injection into the tail vein) | homing pattern of peptide in tumor ([1]; human U87MG intracranial xenograft, 10 μg into tail vein, 60 min circulation, FIG. 5B) | colocalization with endothelial cell marker PECAM-1 ([1]; intracranial U87MG tumor, 10 μg into tail vein, 60 min circulation, FIG. 6) | detection of peptide in tumor tissue [2] | detection of peptide in tumor islets and surrounding normal brain ([3]; FIG. 2) | homing pattern of peptide in tumor ([3]; murine HIFko intracranial tumor, FIG. 5A) | detection of peptide in tumor tissue (subcutaneous HIFko tumor) | homing of phage to tumor containing brain versus normal brain, liver, kidney and lungs [4] |
| --- | --- | --- | --- | --- | --- | --- | --- | --- |
| Fluorescein-conjugated CGLSGLGVA peptide: CGLSGLGVA peptide conjugated to fluorescein, detected with anti-FITC antibody (also: fluorescein conjugate) | homes to the U87MG human glioblastoma xenografts | peptide distribution resembled that of blood vessels | did not colocalize with the blood vessel marker PECAM-1 | not detected in the tumor tissue | detected only in the tumor islets and not in the surrounding normal brain tissue | detected diffusively in the whole tumor tissue | not detected in the tumor tissue | – |
| CGLSGLGVA [novel nine amino acid long tumor-homing peptide] | – | – | – | – | – | – | – | very specifically homes to the intracranial, early stage astrocytoma model (HIFko) |
